Experimental data from paper PMC13266999, “Designing Antibiotics with Inherent Resistance to Efflux as a Strategy to Revive Discovery against Multidrug-Resistant Pathogens” (Journal of Medicinal Chemistry, 2026).

Test system: Staphylococcus epidermidis, S. hemolyticus and S. saprophyticus
Experiment: MIC, extended Gram-positive panel (grouped species)
Type: cell-based, Staphylococcus spp.
Procedure: All bacteria were maintained on tryptic soy agar (TSA), except Streptococcus spp., which were maintained on Columbia agar plates containing 5% horse blood. All bacterial assays were carried out in tryptic soy broth (TSB), except for Streptococcus spp. which were grown in cation-adjusted Mueller Hinton broth containing 2.5% lysed horse blood. Bacteria were grown to stationary phase in liquid culture overnight, with shaking at 200 rpm, before being back diluted to the relevant starting concentration for each assay below. MICs were measured by the microbroth dilution method. […] Absorbance at OD600 was read on a CLARIOstar spectrophotometer (BMG Labtech) and the MIC was defined as the minimum concentration of compound where no visible growth was detected. The compounds were prepared as a DMSO stock and equivalent concentrations of DMSO had no effect on bacterial growth. MICs were also performed in the presence of the outer membrane permeator, polymyxin b nonapeptide (PMBN) following the same MIC method but with the following variation. The 2-fold dilution series of compound was prepared as above, then 50 μL of PMBN at a final concentration of 30 μg/mL was added to relevant wells, while 50 μL/well of blank media was added to the remaining wells. Bacteria were then added at 50 μL/well for a starting concentration as above. […] The MICs were read and defined as above. […]

Cc1cc(C)nc(N[C@@H]2CCN(c3c(F)cc4c(=O)c(C(=O)O)cn5c4c3OC[C@@H]5C)C2)n1 [Compound 50, (S)-10-((R)-3-((4,6-Dimethylpyrimidin-2-yl)amino)pyrrolidin-1-yl)-9-fluoro-3-methyl-7-oxo-2,3-dihydro-7H-[1,4]oxazino[2,3,4-ij]quinoline-6-carboxylic acid]
MIC range: 0.03125 to 0.06 µg/mL
